The values that follow come from ChEMBL document CHEMBL5608184, “Discovery and mechanistic insights into thieno[3,2-d]pyrimidine and heterocyclic fused pyrimidines inhibitors targeting tubulin for cancer therapy” (Eur J Med Chem, 2024).

In assay [1] the test system is SK-OV-3. Nature of the assay: Induction of apoptosis in human SK-OV-3 cells assessed as viable cells at 2.5 nM incubated for 48 hrs by Annexin V-APC-A/7-AAD-A staining based flow cytometry (reference value: 97.17 %). It is filed as functional. Conditions: read-out: Activity.
In the next assay the target is Tubulin. Briefly: Binding affinity to CM5-chip immobilized tubulin (unknown origin) assessed as dissociation constant by SPR analysis. It is filed as protein-complex assay, Homo sapiens.
The test system of assay [2] is SK-OV-3. Briefly: Inhibition of cell migration in human SK-OV-3 cells assessed as relative wound density at 1.25 nM incubated for 24 hrs by wound healing assay (reference value: 74.53 %). On the set-up: scale not given: the % may be the effect or the level left. It is filed as functional.
The test system of assay [3] is SK-OV-3. Nature of the assay: Induction of apoptosis in human SK-OV-3 cells assessed as late apoptotic cells at 1.25 nM incubated for 48 hrs by Annexin V-APC-A/7-AAD-A staining based flow cytometry (reference value: 1.22 %). In kind it is functional. (In flow cytometry, cells or beads pass a laser one at a time.)
Assay [4] relates to SK-OV-3. Nature of the assay: Induction of apoptosis in human SK-OV-3 cells assessed as early apoptotic cells at 2.5 nM incubated for 48 hrs by Annexin V-APC-A/7-AAD-A staining based flow cytometry (reference value: 1.12 %). It is filed as functional.
The subject of assay [5] is SK-OV-3. Briefly: Induction of apoptosis in human SK-OV-3 cells assessed as viable cells at 1.25 nM incubated for 48 hrs by Annexin V-APC-A/7-AAD-A staining based flow cytometry (reference value: 97.17 %). In kind it is functional. Particulars: read-out: Activity.
The subject of assay [6] is SK-OV-3. Briefly: Induction of cell cycle arrest at G2/M phase in human SK-OV-3 cells at 0.625 nM incubated for 24 hrs by PI staining based flow cytometry (reference value: 29.73 %). In kind it is functional.
Assay [7] deals with SK-OV-3. Nature of the assay: Induction of apoptosis in human SK-OV-3 cells assessed as necrotic cells at 0.625 nM incubated for 48 hrs by Annexin V-APC-A/7-AAD-A staining based flow cytometry (reference value: 0.48 %). In kind it is functional.
In assay [8] the test system is SK-OV-3. Briefly: Induction of apoptosis in human SK-OV-3 cells assessed as necrotic cells at 1.25 nM incubated for 48 hrs by Annexin V-APC-A/7-AAD-A staining based flow cytometry (reference value: 0.48 %). It is filed as functional.
In assay [9] the test system is SK-OV-3. Nature of the assay: Inhibition of cell migration in human SK-OV-3 cells assessed as relative wound density at 2.5 nM incubated for 24 hrs by wound healing assay (reference value: 74.53 %). It is filed as functional. Also noted: scale not given: the % may be the effect or the level left.
The test system of assay [10] is SK-OV-3. Nature of the assay: Induction of cell cycle arrest at G2/M phase in human SK-OV-3 cells at 1.25 nM incubated for 24 hrs by PI staining based flow cytometry (reference value: 29.73 %). In kind it is functional.
The subject of assay [11] is SK-OV-3. Briefly: Induction of apoptosis in human SK-OV-3 cells assessed as viable cells at 0.625 nM incubated for 48 hrs by Annexin V-APC-A/7-AAD-A staining based flow cytometry (reference value: 97.17 %). It is filed as functional. Conditions: read-out: Activity.
Assay [12] relates to SK-OV-3. Nature of the assay: Induction of apoptosis in human SK-OV-3 cells assessed as early apoptotic cells at 5 nM incubated for 48 hrs by Annexin V-APC-A/7-AAD-A staining based flow cytometry (reference value: 1.12 %). It is filed as functional.
For assay [13], the system named is SK-OV-3. Briefly: Induction of apoptosis in human SK-OV-3 cells assessed as early apoptotic cells at 0.625 nM incubated for 48 hrs by Annexin V-APC-A/7-AAD-A staining based flow cytometry (reference value: 1.12 %). It is filed as functional.
For assay [14], the system named is SK-OV-3. Nature of the assay: Induction of apoptosis in human SK-OV-3 cells assessed as late apoptotic cells at 0.625 nM incubated for 48 hrs by Annexin V-APC-A/7-AAD-A staining based flow cytometry (reference value: 1.22 %). In kind it is functional.
Assay [15] concerns SK-OV-3. Briefly: Induction of apoptosis in human SK-OV-3 cells assessed as late apoptotic cells at 5 nM incubated for 48 hrs by Annexin V-APC-A/7-AAD-A staining based flow cytometry (reference value: 1.20 %). In kind it is functional.
Assay [16] deals with SK-OV-3. Nature of the assay: Induction of apoptosis in human SK-OV-3 cells assessed as viable cells at 1.25 nM incubated for 48 hrs by Annexin V-APC-A/7-AAD-A staining based flow cytometry (reference value: 97.50 %). In kind it is functional. Particulars: read-out: Activity.
Assay [17] concerns SK-OV-3. Briefly: Induction of apoptosis in human SK-OV-3 cells assessed as late apoptotic cells at 2.5 nM incubated for 48 hrs by Annexin V-APC-A/7-AAD-A staining based flow cytometry (reference value: 1.20 %). In kind it is functional.
Assay [18] relates to SK-OV-3. Nature of the assay: Induction of cell cycle arrest at G2/M phase in human SK-OV-3 cells at 2.5 nM incubated for 24 hrs by PI staining based flow cytometry (reference value: 30.13 %). It is filed as functional.
Assay [19] concerns SK-OV-3. Briefly: Inhibition of cell migration in human SK-OV-3 cells assessed as relative wound density at 0.625 nM incubated for 24 hrs by wound healing assay (reference value: 61.61 %). It is filed as functional. Also noted: scale not given: the % may be the effect or the level left.
For assay [20], the system named is SK-OV-3. Briefly: Inhibition of cell migration in human SK-OV-3 cells assessed as relative wound density at 5 nM incubated for 24 hrs by wound healing assay (reference value: 61.61 %). Also noted: scale not given: the % may be the effect or the level left. It is filed as functional.
The test system of assay [21] is SK-OV-3. Briefly: Induction of apoptosis in human SK-OV-3 cells assessed as early apoptotic cells at 0.625 nM incubated for 48 hrs by Annexin V-APC-A/7-AAD-A staining based flow cytometry (reference value: 1.10 %). It is filed as functional.
The test system of assay [22] is SK-OV-3. Nature of the assay: Inhibition of cell migration in human SK-OV-3 cells assessed as relative wound density at 2.5 nM incubated for 24 hrs by wound healing assay (reference value: 61.61 %). In kind it is functional. On the set-up: scale not given: the % may be the effect or the level left.
For assay [23], the system named is SK-OV-3. Nature of the assay: Induction of apoptosis in human SK-OV-3 cells assessed as late apoptotic cells at 0.625 nM incubated for 48 hrs by Annexin V-APC-A/7-AAD-A staining based flow cytometry (reference value: 1.20 %). In kind it is functional.
Assay [24] concerns SK-OV-3. Briefly: Induction of apoptosis in human SK-OV-3 cells assessed as viable cells at 5 nM incubated for 48 hrs by Annexin V-APC-A/7-AAD-A staining based flow cytometry (reference value: 97.50 %). Conditions: read-out: Activity. It is filed as functional.
Assay [25] concerns SK-OV-3. Nature of the assay: Induction of apoptosis in human SK-OV-3 cells assessed as viable cells at 0.625 nM incubated for 48 hrs by Annexin V-APC-A/7-AAD-A staining based flow cytometry (reference value: 97.50 %). In kind it is functional. Conditions: read-out: Activity.
Assay [26] has as its system SK-OV-3. Briefly: Induction of apoptosis in human SK-OV-3 cells assessed as early apoptotic cells at 1.25 nM incubated for 48 hrs by Annexin V-APC-A/7-AAD-A staining based flow cytometry (reference value: 1.10 %). It is filed as functional.
Assay [27] concerns SK-OV-3. Nature of the assay: Induction of cell cycle arrest at G2/M phase in human SK-OV-3 cells at 5 nM incubated for 24 hrs by PI staining based flow cytometry (reference value: 30.13 %). It is filed as functional.
In assay [28] the test system is SK-OV-3. Briefly: Inhibition of cell migration in human SK-OV-3 cells assessed as relative wound density at 1.25 nM incubated for 24 hrs by wound healing assay (reference value: 61.61 %). In kind it is functional. Also noted: scale not given: the % may be the effect or the level left.
The subject of assay [29] is SK-OV-3. Nature of the assay: Induction of apoptosis in human SK-OV-3 cells assessed as early apoptotic cells at 2.5 nM incubated for 48 hrs by Annexin V-APC-A/7-AAD-A staining based flow cytometry (reference value: 1.10 %). It is filed as functional.
In assay [30] the test system is SK-OV-3. Briefly: Induction of apoptosis in human SK-OV-3 cells assessed as necrotic cells at 0.625 nM incubated for 48 hrs by Annexin V-APC-A/7-AAD-A staining based flow cytometry (reference value: 0.21 %). In kind it is functional.
Assay [31] concerns SK-OV-3. Nature of the assay: Induction of cell cycle arrest at G2/M phase in human SK-OV-3 cells at 0.625 nM incubated for 24 hrs by PI staining based flow cytometry (reference value: 30.13 %). In kind it is functional.

Usually Kd stands for the concentration at which binding is half-saturated. For the compound `COc1ccc2c(c1)NC(=O)CN2c1nc(Cl)nc2ccsc12`, the viability at 0.0025 µM in the assay with SK-OV-3 [1] came out at 53.9%. Moreover, the Kd at Tubulin came out at 24.4 µM. Moreover, the Activity in the assay on SK-OV-3 [2] came out at 33.15%; in the assay with SK-OV-3 [3], 4.64%; in the assay with SK-OV-3 [4], 39.07%; with SK-OV-3 [6], 41.72%; in the assay with SK-OV-3 [7], 0.91%; in the assay on SK-OV-3 [8], 2.6%. For the same compound, the Activity worked out at 9.35% in the assay on SK-OV-3 [9]; 85.13% in the assay on SK-OV-3 [10]; 31.24% in the assay on SK-OV-3 [12]; 15.61% in the assay with SK-OV-3 [13]; 2.48% in the assay with SK-OV-3 [14]. Besides, the viability at 0.00125 µM in the assay with SK-OV-3 [5] was determined as 54.3%. Further, the viability at 0.000625 µM in the assay with SK-OV-3 [11] is 81%.
On to `COc1ccc(N(C)c2nc(Cl)nc3ccn(C)c23)cc1`, for which the Activity in the assay on SK-OV-3 [15] is on record as 3.86%; in the assay on SK-OV-3 [17] it was 2.27%; in the assay with SK-OV-3 [18], 52.19%; in the assay with SK-OV-3 [19], 58.03%; with SK-OV-3 [20], 12.11%; in the assay with SK-OV-3 [21] it was 1.53%. Further, the Activity is 6.33% in the assay with SK-OV-3 [22]; 1.93% in the assay on SK-OV-3 [23]; 2.83% in the assay with SK-OV-3 [26]; 87.47% with SK-OV-3 [27]; 54.94% in the assay with SK-OV-3 [28]; 20.62% in the assay on SK-OV-3 [29]. Also, the results for the Activity in the assay with SK-OV-3 [30] and with SK-OV-3 [31] were 0.33% and 32.3%, respectively. The viability at 0.00125 µM in the assay with SK-OV-3 [16] is 94.1%. Besides, the viability at 0.005 µM in the assay with SK-OV-3 [24] is 54%. In the assay on SK-OV-3 [25], the viability at 0.000625 µM was 96.2%.
